Results published in patent US10179771B2 (GALAPAGOS NV, priority 2014, dated 2019).

Molecular target: T1, Recombinant human TYK2 catalytic domain (Homo sapiens, UniProt P29597)
T1 construct: Recombinant human TYK2 catalytic domain (amino acids 871-1187; catalog number 08-147); purchased Carna biosciences 08-147
T1 sequence (P29597 871-1187): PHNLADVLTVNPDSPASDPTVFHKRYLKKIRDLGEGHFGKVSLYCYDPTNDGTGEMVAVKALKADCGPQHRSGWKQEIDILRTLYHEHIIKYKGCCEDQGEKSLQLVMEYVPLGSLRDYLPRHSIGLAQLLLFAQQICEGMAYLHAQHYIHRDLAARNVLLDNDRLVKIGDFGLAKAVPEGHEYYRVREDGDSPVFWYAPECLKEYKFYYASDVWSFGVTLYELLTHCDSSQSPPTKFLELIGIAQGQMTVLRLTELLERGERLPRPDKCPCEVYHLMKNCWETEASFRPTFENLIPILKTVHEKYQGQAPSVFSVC
Assay: TYK2 inhibition assay
Format: biochemical
Protocol: Recombinant human TYK2 catalytic domain (amino acids 871-1187; catalog number 08-147) was purchased from Carna biosciences. 5 ng of TYK2 was incubated with 12.5 μg polyGT substrate (Sigma catalog number P0275) in kinase reaction buffer (25 mM Hepes pH 7.2, 50 mM NaCl, 0.5 mM EDTA, 1 mM DTT, 5 mM MnCl2, 10 mM MgCl2, 0.1% Brij-35, 0.1 μM non-radioactive ATP, 0.125 μCi ^33P-gamma-ATP (GE Healthcare, catalog number AH9968) final concentrations) with or without 5 μL containing test compound or vehicle (DMSO, 1% final concentration), in a total volume of 25 μL, in a polypropylene 96-well plate (Greiner, V-bottom). After 90 min at 30° C., reactions were stopped by adding 25 μL/well of 150 mM phosphoric acid. All of the terminated kinase reaction was transferred to prewashed (75 mM phosphoric acid) 96 well filter plates (Perkin Elmer catalog number 6005177) using a cell harvester (Perkin Elmer). Plates were washed 6 times with 300 μL per well of a 75 mM phosphoric acid solution and the bottom of the plates was sealed. 40 μL/well of Microscint-20 was added, the top of the plates was sealed and readout was performed using the Topcount (Perkin Elmer). Kinase activity was calculated by subtracting counts per min (cpm) obtained in the presence of a positive control inhibitor (10 μM staurosporine) from cpm obtained in the presence of vehicle. The ability of a test compound to inhibit this activity was determined as: Percentage inhibition=((cpm determined for sample with test compound present−cpm determined for sample with positive control inhibitor) divided by (cpm determined in the presence of vehicle−cpm determined for sample with positive control inhibitor))*100.
Dose dilution series were prepared for the compounds enabling the testing of dose-response effects in the TYK2 assay and the calculation of the IC50 for each compound. Each compound was routinely tested at concentration of 20 μM followed by a 1/3 serial dilution, 8 points (20 μM-6.67 μM-2.22 μM-740 nM-247 nM-82 nM-27 nM-9 nM) in a final concentration of 1% DMSO. When potency of compound series increased, more dilutions were prepared and/or the top concentration was lowered (e.g. 5 μM, 1 μM).

[1] = Illustrative Compounds of the invention (Table XI)

SMILES | IC50 [1] [nM] | IC50 (Comparative Compounds (Table XII)) [nM]
Cc1cc(C#N)ncc1Oc1cc(N(C)C)c2ncn(C)c2c1 [Cpd 35, 5-[7-(dimethylamino)-3-methyl-benzimidazol-5-yl]oxy-4-methyl-pyridine-2-carbonitrile] | > 500 | –
Cc1cc(C#N)ncc1Oc1cc(NC(=O)N2CC(O)C2)c2ncn(C)c2c1 [Cpd 36, N-[6-[(6-cyano-4-methyl-3-pyridyl)oxy]-1-methyl-benzimidazol-4-yl]-3-hydroxy-azetidine-1-carboxamide] | > 500 | –
Cc1cc(C#N)ncc1Oc1cc(NC(=O)N2CCOCC2)c2ncn(C)c2c1 [Cpd 37, N-[6-[(6-cyano-4-methyl-3-pyridyl)oxy]-1-methyl-benzimidazol-4-yl]morpholine-4-carboxamide] | > 500 | –
CN(c1cc2c(cn1)ncn2C)c1ccc(C#N)cc1F [D, reference compound] | – | > 500

More lines, now with the values ahead:

IC50 [1] [nM] | IC50 (Comparative Compounds (Table XII)) [nM] | SMILES
100 to 500 | – | Cc1cc(C#N)ncc1Oc1cc(N)c2ncn(C)c2c1 [Cpd 28, 5-(7-amino-3-methyl-benzimidazol-5-yl)oxy-4-methyl-pyridine-2-carbonitrile]
100 to 500 | – | CCc1cc(S(C)(=O)=O)ncc1Oc1cc(NC(=O)C2CC2)c2ncn(C)c2c1 [Cpd 29, N-[6-[(4-ethyl-6-methylsulfonyl-3-pyridyl)oxy]-1-methyl-benzimidazol-4-yl]cyclopropanecarboxamide]
50 to 100 | – | Cc1cc(C(N)=O)ncc1Oc1cc(NC(=O)[C@H]2C[C@H]2F)c2ncn(C)c2c1 [Cpd 32, 5-[7-[[(1R,2R)-2-fluorocyclopropanecarbonyl]amino]-3-methyl-benzimidazol-5-yl]oxy-4-methyl-pyridine-2-carboxamide]
> 500 | – | CNc1cc(Oc2cnc(C#N)cc2C)cc2c1ncn2C [Cpd 34, 4-methyl-5-[3-methyl-7-(methylamino)benzimidazol-5-yl]oxy-pyridine-2-carbonitrile]
100 to 500 | – | Cc1cc(C#N)ncc1Oc1cc(NC(=O)NC(C)C)c2ncn(C)c2c1 [Cpd 38, 1-[6-[(6-cyano-4-methyl-3-pyridyl)oxy]-1-methyl-benzimidazol-4-yl]-3-isopropyl-urea]
